Assay results published in publication PMC6271395, “Synthesis and Biological Activities of Some New (N^α-Dinicotinoyl)-bis-L-Leucyl Linear and Macrocyclic Peptides” (Molecules, 2014).

What was measured:
Bacillus subtilis = experiment: Agar diffusion antimicrobial test, Bacillus subtilis; format: cell-based; conditions: Gram+ve, modified Kirby–Bauer disk diffusion, 10 µg/mL
Experimental: (§1) The newly synthesized compounds 3–12 were tested for their preliminary antimicrobial activity against different microorganisms representing Gram-positive (Bacillus subtilis, Bacillus aureus and Staphylococcus aureus), Gram-negative bacteria (Escherichia coli), yeast (Candida albican) and fungi (Aspergillus niger).
(§2) The antimicrobial activities of the synthesized compounds were determined by the agar diffusion method as recommended by the national committee for clinical laboratory standards (NCCLS). The concentrations of the tested compounds (10 µg/mL) were used according to modified Kirby–Bauer’s disk diffusion method. The degree of inhibition is measured in comparison with that of chloramphinicol and fusidic acid taken as standards.

Bacillus aureus = experiment: Agar diffusion antimicrobial test, Bacillus aureus; format: cell-based; conditions: Gram+ve, modified Kirby–Bauer disk diffusion, 10 µg/mL
Experimental: as §1, §2

Staphylococcus aureus = experiment: Agar diffusion antimicrobial test, Staphylococcus aureus; format: cell-based; conditions: Gram+ve, modified Kirby–Bauer disk diffusion, 10 µg/mL
Experimental: as §1, §2

Escherichia coli = experiment: Agar diffusion antimicrobial test, Escherichia coli; format: cell-based; conditions: Gram−ve, modified Kirby–Bauer disk diffusion, 10 µg/mL
Experimental: as §1, §2

Candida albicans = experiment: Agar diffusion antimicrobial test, Candida albicans; format: cell-based; conditions: Yeast, modified Kirby–Bauer disk diffusion, 10 µg/mL
Experimental: as §1, §2

Aspergillus niger = experiment: Agar diffusion antimicrobial test, Aspergillus niger; format: cell-based; conditions: Fungi, modified Kirby–Bauer disk diffusion, 10 µg/mL
Experimental: as §1, §2

[1] = system: carrageenan-induced edema; experiment: Carrageenan-induced edema (rat paw test); format: in vivo; conditions: one hour before carrageenan, male albino rats, eight animals per group, paws excised four hours after drug administration
Experimental: (§3) For the determination of the antiphlogistic potency of the synthesized compounds, two standard tests were realized at a dose level 2.5 and 5 mg/kg body weight of the rats, namely the protection against carrageenan-induced edema according to Winter et al. and the inhibition of plasma PGE2. The latter is known as a good confirming indicator for carrageenan-induced rat paw edema. […] For these compounds, a similar activity profile was realized for the inhibition of plasma PGE2.
(§4) Groups of adult male albino rats (150–180 g), each of eight animals were orally dosed with tested compounds at a dose level of 2.5–5 mg/kg one hour before carrageenan challenge. Foot paw edema was induced by subplantar injection of 0.05 cm^3 of a 1% suspension of carrageenan in saline into the plantar tissue of one hind paw. An equal volume of saline was injected to the other hand paw and served as control. Four hours after drug administration the animals were decapitated, blood was collected, and the paws were rapidly excised. The average weight of edema was examined for the treated as well as the control group and the percentage inhibition of weight of edema was also evaluated. Diclofenac potassium (5 mg/kg) was employed as standard reference against which the tested compounds were compared (Table 2).

plasma PGE2 = experiment: Inhibition of plasma PGE2 (EIA) in carrageenan-challenged rats; format: in vivo, rat; conditions: rats n = 8, blood four hours after drug administration, PGE2 EIA kit
Experimental: as §3, §4
Heparinized blood samples were collected from rats (n = 8), plasma was separated by centrifugation at 12,000 g for 2 min at […], immediately frozen, and stored at […] until use. The design correlate EIA prostaglandin E2 (PGE2) kit (Aldrich, Steinheim, Germany) is a competitive immuno assay for the quantitative determination of PGE2 in biological fluids. The kit uses a monoclonal antibody to PGE2 to bind, in a competitive manner, the PGE2 in the sample after a simultaneous incubation at room temperature. The excess reagents were washed away and the substrate was added, after a short incubation time the enzyme reaction was stopped, and the yellow color generated was read on a microplate reader DYNATech, MR 5000 at 405 nm (Dynatech Industries Inc., McLean, VA, USA). The intensity of the bound yellow color is inversely proportional to the concentration of PGE2 in either standard or samples.

MCF7 = format: cell-based, human; conditions: MTT, 3 days, 37 °C; at least three experiments; read-out: IC50 against breast cell line MCF7
Experimental: (§5) The cytotoxicity of the newly synthesized compounds against cancer cell lines in vitro was performed with the MTT assay according to the Mosmann’s method. The MTT assay is based on the reduction of the soluble 3-(4,5-[…]-2-thiazolyl)-2,5-diphenyl-2H-tetrazolium bromide (MTT) into a blue-purple formazan product, mainly by mitochondrial reductase activity inside living cells. The cells used in cytotoxicity assay were cultured in RPMI 1640 medium supplemented with 10% fetal calf serum. Cells suspended in the medium (2 × 10^4 mL^−^1) were plated in 96-well culture plates and incubated at 37 °C in a 5% CO2 incubator. […] The cultured cells were mixed with 20 μL of MTT solution and incubated for 4 h at 37 °C. The supernatant was carefully removed from each well and 100 μL of DMSO were added to each well to dissolve the formazan crystals which were formed by the cellular reduction of MTT. After mixing with a mechanical plate mixer, the absorbance of each well was measured by a microplate reader using a test wavelength of 570 nm. The results were expressed as the IC50, which inducing a 50% inhibition of cell growth of treated cells when compared to the growth of control cells. Each experiment was performed at least three times. There was a good reproducibility between replicate wells with standard errors below 10%.

HS578T = format: cell-based; conditions: MTT, 3 days, 37 °C; at least three experiments; read-out: IC50 against breast cell line HS578T
Experimental: as §5

MDAMB231 = format: cell-based; conditions: MTT, 3 days, 37 °C; at least three experiments; read-out: IC50 against breast cell line MDAMB231
Experimental: as §5

MDAMB435 = format: cell-based; conditions: MTT, 3 days, 37 °C; at least three experiments; read-out: IC50 against breast cell line MDAMB435
Experimental: as §5

SMILES | Inhibition Zome, Bacillus subtilis (Bacillus subtilis) | Inhibition Zome, Bacillus aureus (Bacillus aureus) | Inhibition Zome, Staphylococcus aureus (Staphylococcus aureus) | Inhibition Zome, Escherichia coli (Escherichia coli) | Inhibition Zome, Candida albicans (Candida albicans) | Inhibition Zome, Aspergillus niger (Aspergillus niger) | % Protection against Edema ([1]; dose 2.5 mg/kg oral) | % Protection against Edema ([1]; dose 5.0 mg/kg oral) | % Inhibition of Plasma PGE2 (plasma PGE2; dose 2.5 mg/kg oral) | % Inhibition of Plasma PGE2 (plasma PGE2; dose 5.0 mg/kg oral) | IC50 (MCF7) | IC50 (HS578T) | IC50 (MDAMB231) | IC50 (MDAMB435)
CC(C)C[C@H](NC(=O)c1cncc(C(=O)N[C@@H](CC(C)C)C(=O)NN2C(=O)c3ccccc3C2=O)c1)C(=O)NN1C(=O)c2ccccc2C1=O [Compound 7a] | 1.55 cm | 1.84 cm | 1.58 cm | 0.75 cm | 1.02 cm | 1.64 cm | 97.45 ± 0.054% | 98.86 ± 0.046% | 81.30 ± 0.044% | 82.48 ± 0.052% |  |  |  | 
C/C(=N\NC(=O)[C@H](CC(C)C)NC(=O)c1cncc(C(=O)N[C@@H](CC(C)C)C(=O)N/N=C(\C)c2ccc(Cl)cc2)c1)c1ccc(Cl)cc1 [Compound 9a] | 1.84 cm | 1.88 cm | 1.76 cm | 0.92 cm | 1.10 cm | 2.01 cm | 82.16 ± 0.076% | 93.16 ± 0.064% | 58.96 ± 0.024% | 74.58 ± 0.040% |  |  |  | 
COc1ccc(/C(C)=N/NC(=O)[C@H](CC(C)C)NC(=O)c2cncc(C(=O)N[C@@H](CC(C)C)C(=O)N/N=C(\C)c3ccc(OC)cc3)c2)cc1 [Compound 9b] | 1.60 cm | 1.74 cm | 1.72 cm | 0.75 cm | 1.00 cm | 1.88 cm | 79.34 ± 0.081% | 92.92 ± 0.090% | 57.90 ± 0.040% | 77.14 ± 0.052% |  |  |  | 
CC(C)C[C@H](NC(=O)c1cncc(C(=O)N[C@@H](CC(C)C)C(=O)N/N=C/c2ccc([N+](=O)[O-])cc2)c1)C(=O)N/N=C/c1ccc([N+](=O)[O-])cc1 [Compound 10d] | 1.85 cm | 2.00 cm | 1.92 cm | 0.90 cm | 0.96 cm | 2.00 cm | 81.00 ± 0.072% | 95.82 ± 0.062% | 63.14 ± 0.023% | 79.88 ± 0.031% | 0.00035 µM | 5.67 µM | 3.67 µM | 57.5 µM
